Source: ChEMBL document CHEMBL1201862, “PubChem BioAssay data set” (2004)
Values belong to the compound of their own block, whether it stands above or below them. Calls of active or inactive are those of the source.

Assays:
HEK293 [1] = assay: optical interference in Abeta FP readout, dose response, artefact control for IDE activator project, biochemical, fluorescence polarization (AID 588442); format: functional, cell-based; conditions: Homo sapiens
Insulin-degrading enzyme [2] = molecular target: T1, Insulin-degrading enzyme (Homo sapiens, UniProt P14735); assay: cellular IDE activation of Abeta substrate cleavage – fluorescence polarization, HEK cells, dose response (AID 588439); format: functional, cell-based
T1 sequence (P14735 whole entry): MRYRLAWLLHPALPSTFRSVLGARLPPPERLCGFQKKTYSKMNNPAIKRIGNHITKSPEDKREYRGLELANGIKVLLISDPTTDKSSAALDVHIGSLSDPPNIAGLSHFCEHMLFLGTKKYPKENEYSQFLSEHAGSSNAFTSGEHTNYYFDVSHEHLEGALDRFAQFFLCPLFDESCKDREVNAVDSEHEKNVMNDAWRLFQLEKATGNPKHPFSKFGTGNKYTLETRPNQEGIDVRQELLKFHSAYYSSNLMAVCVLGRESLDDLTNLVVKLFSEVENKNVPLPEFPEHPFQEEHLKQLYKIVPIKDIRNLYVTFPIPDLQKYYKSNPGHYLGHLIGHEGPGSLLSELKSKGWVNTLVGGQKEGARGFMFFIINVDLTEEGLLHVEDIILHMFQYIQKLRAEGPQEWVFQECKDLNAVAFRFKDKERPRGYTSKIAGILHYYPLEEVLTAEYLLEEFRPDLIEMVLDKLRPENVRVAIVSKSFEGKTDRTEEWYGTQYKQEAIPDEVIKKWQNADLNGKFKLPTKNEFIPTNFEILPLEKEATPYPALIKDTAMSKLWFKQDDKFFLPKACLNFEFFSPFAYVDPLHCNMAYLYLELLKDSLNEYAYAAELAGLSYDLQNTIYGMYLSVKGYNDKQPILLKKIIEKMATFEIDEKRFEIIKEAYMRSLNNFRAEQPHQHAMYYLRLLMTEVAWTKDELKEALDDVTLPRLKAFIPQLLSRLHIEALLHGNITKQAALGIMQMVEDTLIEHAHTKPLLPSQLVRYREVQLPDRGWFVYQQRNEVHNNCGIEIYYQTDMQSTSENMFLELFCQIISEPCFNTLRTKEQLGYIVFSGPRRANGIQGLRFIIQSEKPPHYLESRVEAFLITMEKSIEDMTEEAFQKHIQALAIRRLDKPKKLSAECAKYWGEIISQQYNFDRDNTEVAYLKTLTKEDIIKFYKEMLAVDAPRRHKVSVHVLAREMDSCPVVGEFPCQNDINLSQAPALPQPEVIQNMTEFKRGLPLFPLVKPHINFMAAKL

Insulin-degrading enzyme [3] = molecular target: T1, Insulin-degrading enzyme; assay: recombinant IDE activation, cell-free – biochemical, fluorescence polarization, counter-screen for IDE activator project, dose response (AID 588681)
HEK293 [4] = assay: membrane integrity loss in HEK cells – cell-based, fluorescence, cytotoxicity control for IDE activator project, dose response (AID 588440); format: functional; conditions: Homo sapiens;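 also: cytotoxicity by LDH release measuring loss of membrane integrity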
[5] = molecular target: Melanin-concentrating hormone receptor 1 (Homo sapiens, UniProt Q99705); assay: Late-stage fluorescence-based counterscreen for antagonists of the G-protein coupled receptor 7 (GPR7): cell-based dose response assay to identify antagonists of the melanin-concentrating hormone receptor 1 (MCHR1) Set 5.; format: functional
[6] = fluconazole-exposed Candida albicans growth modulators – fluorescence, retest, confirmation (AID 2467); format: functional, cell-based
[7] = molecular target: NACHT, LRR and PYD domains-containing protein 3 (Homo sapiens, UniProt Q96P20); assay: NALP3 inhibitors in yeast, dose response, luminescent (AID 488799); format: functional
[8] = molecular target: ATP-dependent molecular chaperone HSP82 (Candida albicans (strain WO-1) (Yeast), UniProt C4YTQ8); assay: steroid-induced GRE reporter decrease in yeast – S. cerevisiae, luminescence, Hsp90 inhibitor project, dose response (AID 2400); format: functional, cell-based;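 also: beta-galactosidase luminescence from glucocorticoid response element reporter as proxy for Hsp90 function; inhibitor potency where signal loss means Hsp90 inhibition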
[9] = molecular target: Serine/threonine-protein phosphatase (Candida dubliniensis (strain CD36 / CBS 7987 / NCPF 3949 / NRRLY-17841) (Yeast), UniProt B9W6M3); assay: blockers of CaCl2-induced CDRE-lacZ signaling – S. cerevisiae, luminescence, secondary, dose response (AID 2388); format: functional, cell-based;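 also: yeast reporter cells carrying a calcineurin-responsive lacZ construct stimulated with calcium chloride; luminescent beta-galactosidase reporter signal in whole cells rather than isolated phosphatase activity; potency for inhibition where a drop in reporter signal means calcineurin blockade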
[10] = molecular target: T2, Corticotropin-releasing factor receptor 2/Corticotropin-releasing factor-binding protein (Homo sapiens, UniProt P24387+Q13324); assay: activators of CRF receptor 2 with binding protein – uHTS hits, confirmation (AID 602473); format: functional; conditions: read-out: EC50_Mean
T2 sequence (Q13324 whole entry): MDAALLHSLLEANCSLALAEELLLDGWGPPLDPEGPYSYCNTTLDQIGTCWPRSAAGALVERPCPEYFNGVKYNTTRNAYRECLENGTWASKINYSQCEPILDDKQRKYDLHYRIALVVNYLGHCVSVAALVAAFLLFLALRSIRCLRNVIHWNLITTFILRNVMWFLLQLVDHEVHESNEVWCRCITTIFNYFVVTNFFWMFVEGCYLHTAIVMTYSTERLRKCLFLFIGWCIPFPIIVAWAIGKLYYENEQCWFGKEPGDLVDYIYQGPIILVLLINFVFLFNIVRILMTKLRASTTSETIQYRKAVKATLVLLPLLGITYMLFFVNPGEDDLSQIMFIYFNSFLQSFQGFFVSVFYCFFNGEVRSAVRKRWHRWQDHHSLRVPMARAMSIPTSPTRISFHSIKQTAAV
T2 sequence (P24387 whole entry): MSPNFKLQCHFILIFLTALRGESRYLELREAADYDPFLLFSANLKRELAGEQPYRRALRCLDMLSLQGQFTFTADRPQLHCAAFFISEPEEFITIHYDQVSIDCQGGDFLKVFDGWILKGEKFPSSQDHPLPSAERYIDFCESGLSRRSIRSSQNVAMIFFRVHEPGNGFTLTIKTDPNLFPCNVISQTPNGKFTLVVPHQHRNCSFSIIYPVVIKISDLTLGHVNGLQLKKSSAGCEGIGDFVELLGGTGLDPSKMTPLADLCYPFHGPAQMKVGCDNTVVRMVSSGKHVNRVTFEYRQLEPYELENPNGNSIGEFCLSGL

[11] = NIH-3T3 fibroblast cytotoxicity, dose response, cytotoxicity control, cell-based, fluorescence, Alamar Blue, secondary assay (AID 2327); format: functional;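 also: NIH-3T3 mouse fibroblasts cultured with fluconazole at 8 µg/mL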

Sequence of Melanin-concentrating hormone receptor 1 (Q99705 whole entry): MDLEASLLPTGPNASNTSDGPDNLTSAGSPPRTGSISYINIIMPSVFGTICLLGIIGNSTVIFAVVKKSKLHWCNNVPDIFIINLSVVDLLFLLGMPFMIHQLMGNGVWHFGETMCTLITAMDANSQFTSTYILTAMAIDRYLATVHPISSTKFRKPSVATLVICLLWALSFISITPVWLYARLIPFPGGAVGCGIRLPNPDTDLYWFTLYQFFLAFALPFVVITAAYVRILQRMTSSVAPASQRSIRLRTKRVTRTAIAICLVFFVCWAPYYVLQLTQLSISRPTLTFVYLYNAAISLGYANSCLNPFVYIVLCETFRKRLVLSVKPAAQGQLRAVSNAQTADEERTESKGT
Sequence of NACHT, LRR and PYD domains-containing protein 3 (Q96P20 whole entry, the tested form may be a part): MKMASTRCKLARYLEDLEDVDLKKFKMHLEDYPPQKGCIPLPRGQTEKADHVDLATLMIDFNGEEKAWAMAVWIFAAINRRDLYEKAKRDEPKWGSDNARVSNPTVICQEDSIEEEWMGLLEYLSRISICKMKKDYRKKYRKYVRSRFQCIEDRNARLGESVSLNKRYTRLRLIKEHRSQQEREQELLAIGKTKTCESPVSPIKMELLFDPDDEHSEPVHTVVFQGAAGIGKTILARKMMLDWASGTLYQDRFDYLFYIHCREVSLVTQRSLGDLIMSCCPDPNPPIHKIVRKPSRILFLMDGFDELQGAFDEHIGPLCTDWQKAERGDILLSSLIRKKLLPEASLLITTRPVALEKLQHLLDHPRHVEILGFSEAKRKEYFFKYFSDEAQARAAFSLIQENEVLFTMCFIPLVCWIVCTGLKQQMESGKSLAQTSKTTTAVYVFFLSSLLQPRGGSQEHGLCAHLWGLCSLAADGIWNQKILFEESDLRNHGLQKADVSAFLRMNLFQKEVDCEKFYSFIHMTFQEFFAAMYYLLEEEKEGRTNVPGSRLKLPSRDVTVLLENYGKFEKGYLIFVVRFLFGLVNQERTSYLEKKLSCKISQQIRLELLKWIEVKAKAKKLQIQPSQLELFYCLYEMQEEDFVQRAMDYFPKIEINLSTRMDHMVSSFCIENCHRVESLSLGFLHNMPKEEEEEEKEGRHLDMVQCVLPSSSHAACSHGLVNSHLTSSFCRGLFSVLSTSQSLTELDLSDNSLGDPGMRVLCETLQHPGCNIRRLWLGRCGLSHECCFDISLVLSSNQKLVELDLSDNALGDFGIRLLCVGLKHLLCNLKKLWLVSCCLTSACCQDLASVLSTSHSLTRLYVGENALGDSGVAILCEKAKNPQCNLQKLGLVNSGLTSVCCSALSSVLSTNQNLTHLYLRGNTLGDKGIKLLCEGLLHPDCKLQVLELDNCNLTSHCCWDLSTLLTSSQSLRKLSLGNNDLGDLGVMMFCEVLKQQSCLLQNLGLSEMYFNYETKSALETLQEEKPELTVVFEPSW
Sequence of Serine/threonine-protein phosphatase (B9W6M3 whole entry): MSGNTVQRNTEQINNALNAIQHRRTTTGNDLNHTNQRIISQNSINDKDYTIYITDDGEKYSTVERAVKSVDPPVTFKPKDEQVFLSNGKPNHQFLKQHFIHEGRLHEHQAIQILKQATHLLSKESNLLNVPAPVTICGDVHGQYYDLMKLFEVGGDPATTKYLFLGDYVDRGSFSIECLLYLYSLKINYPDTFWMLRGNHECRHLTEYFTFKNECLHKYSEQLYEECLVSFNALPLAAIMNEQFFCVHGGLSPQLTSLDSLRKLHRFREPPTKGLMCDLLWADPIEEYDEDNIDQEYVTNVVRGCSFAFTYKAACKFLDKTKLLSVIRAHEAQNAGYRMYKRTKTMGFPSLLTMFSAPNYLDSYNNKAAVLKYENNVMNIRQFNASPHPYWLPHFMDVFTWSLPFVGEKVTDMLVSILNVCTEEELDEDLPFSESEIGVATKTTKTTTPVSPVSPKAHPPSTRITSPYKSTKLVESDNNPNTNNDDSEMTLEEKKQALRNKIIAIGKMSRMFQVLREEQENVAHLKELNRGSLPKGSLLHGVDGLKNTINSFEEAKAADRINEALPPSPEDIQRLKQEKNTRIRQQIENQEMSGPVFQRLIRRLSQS
Sequence of ATP-dependent molecular chaperone HSP82 (C4YTQ8 whole entry): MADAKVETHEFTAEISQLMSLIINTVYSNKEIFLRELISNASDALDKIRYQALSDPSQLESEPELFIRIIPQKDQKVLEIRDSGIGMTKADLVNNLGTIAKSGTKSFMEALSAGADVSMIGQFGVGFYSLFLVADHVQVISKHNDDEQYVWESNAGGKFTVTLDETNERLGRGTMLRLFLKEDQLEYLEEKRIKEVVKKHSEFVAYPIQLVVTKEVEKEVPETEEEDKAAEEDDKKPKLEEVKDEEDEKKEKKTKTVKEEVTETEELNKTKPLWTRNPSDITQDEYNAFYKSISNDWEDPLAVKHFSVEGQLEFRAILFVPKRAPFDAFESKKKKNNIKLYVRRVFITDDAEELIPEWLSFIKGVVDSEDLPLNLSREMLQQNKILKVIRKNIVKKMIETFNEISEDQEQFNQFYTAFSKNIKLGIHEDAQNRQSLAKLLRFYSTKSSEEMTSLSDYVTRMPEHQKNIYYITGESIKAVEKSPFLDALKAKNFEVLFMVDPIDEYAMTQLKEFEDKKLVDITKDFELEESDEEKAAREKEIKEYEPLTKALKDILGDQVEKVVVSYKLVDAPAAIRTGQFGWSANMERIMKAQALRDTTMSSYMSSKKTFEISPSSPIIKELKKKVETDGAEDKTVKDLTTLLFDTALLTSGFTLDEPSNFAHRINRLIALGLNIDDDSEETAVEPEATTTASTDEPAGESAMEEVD

Compound: Cc1nc(Cc2nnc(SC(C)C(=O)N3c4ccccc4NC(=O)C3(C)C)o2)cs1 (stereo unspecified)
EC50 (HEK293 [1]): > 55.9 µM (inactive)
EC50 (Insulin-degrading enzyme [2]): > 54.7 µM (inactive)
EC50 (Insulin-degrading enzyme [3]): > 54.7 µM (inactive)
IC50 (HEK293 [4]): > 89.1 µM (inactive)

IC50 [5]: 4.62 µM (active)
Compound: CCc1ccccc1Cn1ncc(Cl)c(Oc2ccc(OC)cc2)c1=O

Compound: O=C(NNC(=S)NC(=O)c1ccc(Br)cc1)c1ccc([N+](=O)[O-])cc1
EC50 [6]: 198 nM (active)
IC50 [7]: 5.63 µM (active)
EC50 [8]: > 160 µM (inactive)
EC50 [9]: > 180 µM (inactive)
EC50 [10]: 5.32 µM (active)
EC50 [11]: > 160 µM (inconclusive)
